# Assays:
# Botrvtis cinerea = assay: Example B-1: Action against Botrytis cinerea, fungal growth assay; format: cell-based; conditions: 0.002% active ingredient, PDB broth, 24° C., photometric after 3-4 days
# Method: (§1) Action against Botrvtis cinerea—fungal growth assay Conidia of the fungus from cryogenic storage was directly mixed into nutrient broth (PDB potato dextrose broth). After placing a (DMSO) solution of the test compounds (0.002% active ingredient) into a microtiter plate (96-well format) the nutrient broth containing the fungal spores was added. The test plates were incubated at 24° C. and the inhibition of growth was measured photometrically after 3-4 days. The activity of a compound was expressed as fungal growth inhibition (0=no growth inhibition, ratings of 80% to 99% mean good to very good inhibition, 100%=complete inhibition).
# [1] = system: Mycosphaerella arachidis (Cercospora arachidicola); assay: Example B-2: Action against Mycosphaerella arachidis, fungal growth assay; format: cell-based; conditions: 0.002% active ingredient, PDB broth, 24° C., photometric after 6-7 days
# Method: as §1, with “Action Against Mycosphaerella arachidis (Early Leaf Spot of Groundnut; Cercospora arachidicola [fanamorph])—Fungal Growth Assay” for “Action against Botrvtis cinerea—fungal growth assay”, “storage were” for “storage was”, “after 6-7” for “after 3-4”
# Septoria tritici = assay: Example B-3: Action against Septoria tritici, fungal growth assay; format: cell-based; conditions: Zymoseptoria tritici; 0.002% active ingredient; PDB broth, 24° C., photometric after 72 hrs
# Method: as §1, with “Action Against Septoria tritici—Fungal Growth Assay” for “Action against Botrvtis cinerea—fungal growth assay”, “storage were” for “storage was”, “was determined” for “was measured”, “after 72 hrs.” for “after 3-4 days.”
# [2] = system: Erysiphe graminis f. sp. tritici; assay: Example B-5: Action against Erysiphe graminis f. sp. tritici (wheat powdery mildew), wheat leaf segments; format: in vivo; conditions: Blumeria graminis, foliar, 168 h, 0.02% active ingredient, 7 days after inoculation, read-out: preventive fungicidal activity (inhibition)
# Method: (§2) Action Against Erysiphe graminis f. sp. tritici (Wheat Powdery Mildew) Wheat leaf segments were placed on agar in multiwell plates (24-well format) and sprayed with test solutions (0.02% active ingredient). After drying, the leaf disks were inoculated with a spore suspension of the fungus. After appropriate incubation the activity of a compound was assessed 7 days after inoculation as preventive fungicidal activity.
# Puccinia recondita [3] = assay: Example B-6: Protective action against Puccinia recondita (brown rust) on wheat leaf segments; format: in vivo; conditions: foliar, 192 h, 0.02% active ingredient, 8 days after inoculation, read-out: preventive fungicidal activity (inhibition)
# Method: as §2, with “Protective Action” for “Action”, “Puccinia recondita (Brown Rust) on Wheat” for “Erysiphe graminis f. sp. tritici (Wheat Powdery Mildew)”, “8” for “7”
# Pyrenophora teres [4] = assay: Example B-8: Action against Pyrenophora teres (net blotch) on barley leaf segments; format: in vivo; conditions: foliar, 96 h, 0.02% active ingredient, 4 days after inoculation, read-out: preventive fungicidal activity (inhibition)
# Method: as §2, with “Pyrenophora teres (Net Blotch) on Barley Barley” for “Erysiphe graminis f. sp. tritici (Wheat Powdery Mildew) Wheat”, “4” for “7”
# [5] = system: Blumeria graminis f. sp. tritici (Erysiphe graminis f. sp. tritici); assay: Example B-9: Blumeria graminis f. sp. tritici / wheat / leaf disc preventive (comparative); format: in vivo; conditions: 4 dpi
# Method: Blumeria graminis f. sp. tritici (Erysiphe graminis f. sp. tritici)/Wheat/Leaf Disc Preventive (Powdery mildew on wheat) Wheat leaf segments were placed on agar in a multiwell plate (24-well format) and sprayed with test solutions. After drying, the leaf disks were inoculated with a spore suspension of the fungus. After appropriate incubation the activity of a compound was assessed 4 dpi (days after inoculation) as preventive fungicidal activity.
# Puccinia recondita [6] = assay: Example B-10: Puccinia recondita / wheat / leaf disc preventative (comparative); format: in vivo; conditions: 8 dpi
# Method: Puccinia recondita/Wheat/Leaf Disc Preventative (Brown Rust) Wheat leaf segments were placed on agar in multiwell plates (24-well format) and sprayed with test solutions. After drying, the leaf disks were inoculated with a spore suspension of the fungus. After appropriate incubation the activity of a compound was assessed 8 dpi (days after inoculation) as preventive fungicidal activity.
# [7] = system: Phaeosphaeria nodorum (Septoria nodorum); assay: Example B-11: Phaeosphaeria nodorum / wheat / leaf disc preventative (comparative); format: in vivo; conditions: 4 dpi
# Method: (§3) Phaeosphaeria nodorum (Septoria nodorum)/Wheat/Leaf Disc Preventative (Glume Blotch) Wheat leaf segments were placed on agar in a multiwell plate (24-well format) and sprayed with test solutions. After drying, the leaf disks were inoculated with a spore suspension of the fungus. After appropriate incubation the activity of a compound was assessed 4 dpi (days after inoculation) as preventive fungicidal activity.
# Pyrenophora teres [8] = assay: Example B-12: Pyrenophora teres / barley / leaf disc preventive (comparative); format: in vivo; conditions: 4 dpi
# Method: as §3, with “Pyrenophora teres/Barley/Leaf” for “Phaeosphaeria nodorum (Septoria nodorum)/Wheat/Leaf”, “Preventive (Net” for “Preventative (Glume”, “Barley” for “Wheat”
# Alternaria solani = assay: Example B-13: Alternaria solani / tomato / leaf disc (comparative); format: in vivo; conditions: 4 dpi
# Method: Alternaria solani/Tomato/Leaf Disc (Early Blight) Tomato leaf disks were placed on water agar in multiwell plates (24-well format) and sprayed with test solutions. After drying, the leaf disks were inoculated with a spore suspension of the fungus. After appropriate incubation the activity of a compound was assessed 4 dpi (days after inoculation) as preventive fungicidal activity.
# [9] = system: Botryotinia fuckeliana (Botrytis cinerea); assay: Example B-14: Botryotinia fuckeliana (Botrytis cinerea) / liquid culture (comparative); format: cell-based; conditions: 24° C., photometric after 3-4 days, read-out: inhibition of growth
# Method: (§4) Botryotinia fuckeliana (Botrytis cinerea)/Liquid Culture (Gray Mould) Conidia of the fungus from cryogenic storage were directly mixed into nutrient broth. After placing a (DMSO) solution of the test compounds into a microtiter plate (96-well format) the nutrient broth containing the fungal spores was added. The test plates were incubated at 24° C. and the inhibition of growth is determined photometrically after 3-4 days.
# [10] = system: Mycosphaerella arachidis (Cercospora arachidicola); assay: Example B-15: Mycosphaerella arachidis / liquid culture (comparative); format: cell-based; conditions: 24° C., photometric after 6-7 days, read-out: inhibition of growth
# Method: as §4, with “Mycosphaerella arachidis (Cercospora arachidicola)/Liquid” for “Botryotinia fuckeliana (Botrytis cinerea)/Liquid”, “(Early Leaf Spot)” for “(Gray Mould)”, “broth (PDB potato dextrose broth).” for “broth.”, “measured” for “determined”, “6-7” for “3-4”
# [11] = system: Mycosphaerella praminicola (Seotoria tritici); assay: Example B-16: Mycosphaerella graminicola (Septoria tritici) / liquid culture (comparative); format: cell-based; conditions: 96 h, 24° C., photometric after 4 days, read-out: inhibition of growth
# Method: as §4, with “Mycosphaerella praminicola (Seotoria tritici)/Liquid” for “Botryotinia fuckeliana (Botrytis cinerea)/Liquid”, “(Septoria Blotch)” for “(Gray Mould)”, “broth (PDB potato dextrose broth).” for “broth.”, “measured” for “determined”, “4” for “3-4”
# Gaeumannomyces graminis = assay: Example B-17: Gaeumannomyces graminis / liquid culture (comparative); format: cell-based; conditions: 24 C, photometric after 2-3 days, read-out: inhibition of growth
# Method: Gaeumannomyces graminis/Liquid Culture (Take-All of Cereals) Mycelial fragments of the fungus from cryogenic storage were directly mixed into nutrient broth (PDB potato dextrose broth). After placing a (DMSO) solution of the test compounds into a microtiter plate (96-well format) the nutrient broth containing the fungal spores was added. The test plates were incubated at 24 C and the inhibition of growth was determined photometrically after 2-3 days.
# [12] = system: Monopraphella nivalis (Microdochium nivale); assay: Example B-18: Monographella nivalis (Microdochium nivale) / liquid culture (comparative); format: cell-based; conditions: 24° C., photometric after 4-6 days, read-out: inhibition of growth
# Method: as §4, with “Monopraphella nivalis (Microdochium nivale)/Liquid” for “Botryotinia fuckeliana (Botrytis cinerea)/Liquid”, “(Foot Rot Cereals” for “(Gray Mould)”, “broth (PDB potato dextrose broth).” for “broth.”, “measured” for “determined”, “4-6” for “3-4”
structure (smiles),measurement,setting,value
"CON(C(=O)c1cn(C)nc1C(F)F)C(C)c1ccc(Oc2ccc(Cl)cc2)cc1 (stereo not shown) [Compound 1.010, 3-difluoromethyl-1-methyl-1H-pyrazole-4-carboxylic acid {1-[4-(4-chloro-phenoxy)-phenyl]-ethyl}-methoxy-amide]",inhibition at 0.002 % strength,Botrvtis cinerea,≥ 80%
same,inhibition at 0.002 % strength,[1],≥ 80%
same,inhibition at 0.002 % strength,Septoria tritici,≥ 80%
same,inhibition at 0.02 % strength,[2],≥ 80%
same,inhibition at 0.02 % strength,Puccinia recondita [3],≥ 80%
same,inhibition at 0.02 % strength,Pyrenophora teres [4],≥ 80%
"CON(C(=O)c1cn(C)nc1C(F)F)C(C)c1cccc(-c2ccc(Cl)cc2)c1 (stereo not shown) [Compound 1.019, 3-difluoromethyl-1-methyl-1H-pyrazole-4-carboxylic acid [1-(4′ chloro-biphenyl-3-yl)-ethyl]-methoxy-amide]",inhibition at 0.002 % strength,Botrvtis cinerea,≥ 80%
same,inhibition at 0.002 % strength,[1],≥ 80%
same,inhibition at 0.002 % strength,Septoria tritici,≥ 80%
same,inhibition at 0.02 % strength,[2],≥ 80%
same,inhibition at 0.02 % strength,Puccinia recondita [3],≥ 80%
same,inhibition at 0.02 % strength,Pyrenophora teres [4],≥ 80%
"CON(C(=O)c1cn(C)nc1C(F)F)C(C)c1cccc(Oc2ccc(Cl)cc2)c1 (stereo not shown) [Compound 1.021, 3-difluoromethyl-1-methyl-1H-pyrazole-4-carboxylic acid {1-[3-(4-chloro-phenoxy)-phenyl]-ethyl}-methoxy-amide]",inhibition at 0.002 % strength,Botrvtis cinerea,≥ 80%
same,inhibition at 0.002 % strength,[1],≥ 80%
same,inhibition at 0.002 % strength,Septoria tritici,≥ 80%
same,inhibition at 0.02 % strength,[2],≥ 80%
same,inhibition at 0.02 % strength,Puccinia recondita [3],≥ 80%
same,inhibition at 0.02 % strength,Pyrenophora teres [4],≥ 80%
"CON(Cc1cccc(I)c1)C(=O)c1cn(C)nc1C(F)F [Compound 1.097, 3-difluoromethyl-1,1-dimethyl-1H-pyrazole-4-carboxylic acid (3-iodo-benzyl)-methoxy-amide]",inhibition at 0.002 % strength,Botrvtis cinerea,≥ 80%
same,inhibition at 0.002 % strength,[1],≥ 80%
same,inhibition at 0.002 % strength,Septoria tritici,≥ 80%
same,melting point,,114 to 116 °C
"CON(Cc1cccc(-c2ccc(Cl)cc2)c1)C(=O)c1cn(C)nc1C(F)F [Compound 1.098, 3-difluoromethyl-1-methyl-1H-pyrazole-4-carboxylic acid (4′-chloro-biphenyl-3-ylmethyl)-methoxy-amide]",inhibition at 0.002 % strength,Botrvtis cinerea,≥ 80%
same,inhibition at 0.002 % strength,[1],≥ 80%
same,inhibition at 0.002 % strength,Septoria tritici,≥ 80%
same,inhibition at 0.02 % strength,[2],≥ 80%
same,inhibition at 0.02 % strength,Puccinia recondita [3],≥ 80%
same,inhibition at 0.02 % strength,Pyrenophora teres [4],≥ 80%
"CC(NC(=O)c1cn(C)nc1C(F)F)c1ccc(Cl)cc1Cl (stereo not shown) [No. 1.042 (prior art), reference compound]",preventive fungicidal activity,[5]; 20 ppm,0
same,preventive fungicidal activity,[5]; 60 ppm,50
same,preventive fungicidal activity,[5]; 200 ppm,100
same,preventive fungicidal activity,Puccinia recondita [6]; 20 ppm,0
same,preventive fungicidal activity,Puccinia recondita [6]; 60 ppm,0
same,preventive fungicidal activity,Puccinia recondita [6]; 200 ppm,50
same,preventive fungicidal activity,[7]; 20 ppm,0
same,preventive fungicidal activity,[7]; 60 ppm,0
same,preventive fungicidal activity,[7]; 200 ppm,70
same,preventive fungicidal activity,Pyrenophora teres [8]; 20 ppm,50
same,preventive fungicidal activity,Pyrenophora teres [8]; 60 ppm,90
same,preventive fungicidal activity,Pyrenophora teres [8]; 200 ppm,100
same,preventive fungicidal activity,Alternaria solani; 20 ppm,0
same,preventive fungicidal activity,Alternaria solani; 60 ppm,20
same,preventive fungicidal activity,Alternaria solani; 200 ppm,70
same,inhibition at 20 ppm,[9]; 20 ppm,0%
same,inhibition at 60 ppm,[9]; 60 ppm,20%
same,inhibition at 200 ppm,[9]; 200 ppm,50%
same,inhibition at 6 ppm,[10]; 6 ppm,0%
same,inhibition at 20 ppm,[10]; 20 ppm,100%
same,inhibition at 60 ppm,[10]; 60 ppm,100%
same,inhibition at 6 ppm,[11]; 6 ppm,20%
same,inhibition at 20 ppm,[11]; 20 ppm,100%
same,inhibition at 60 ppm,[11]; 60 ppm,100%
same,inhibition at 6 ppm,Gaeumannomyces graminis; 6 ppm,0%
same,inhibition at 20 ppm,Gaeumannomyces graminis; 20 ppm,0%
same,inhibition at 60 ppm,Gaeumannomyces graminis; 60 ppm,0%
same,inhibition at 6 ppm,[12]; 6 ppm,0%
same,inhibition at 20 ppm,[12]; 20 ppm,0%
same,inhibition at 60 ppm,[12]; 60 ppm,50%
